# In patent publication US12492182B2, “Hydroxytriazine compounds and pharmaceutical use thereof” (Japan Tobacco Inc., priority 2015, dated 2025):
# pIC50: −log10 of the molar value. Read-outs that look alike come from different tables or passages of the source.
# Tests used:
# [1] = target: T1, human mPGES-1 (Homo sapiens, UniProt O14684); experiment: Evaluation of human mPGES-1 enzyme inhibitory activity (HTRF measurement of PGE2); type: biochemical; conditions: IC50 value; microsome fraction of CHO-S cells expressing human mPGES-1, PGH2 substrate, PGE2 by HTRF; read-out: humans mPGES-1 enzyme inhibitory activity
# T1 construct: made in house; host or cells: Chinese hamster ovary-derived cells (FreeStyle CHO-S), transient transfection of pcDNA3.1(+)/human mPGES-1; microsome fraction
# T1 sequence (O14684 1-152): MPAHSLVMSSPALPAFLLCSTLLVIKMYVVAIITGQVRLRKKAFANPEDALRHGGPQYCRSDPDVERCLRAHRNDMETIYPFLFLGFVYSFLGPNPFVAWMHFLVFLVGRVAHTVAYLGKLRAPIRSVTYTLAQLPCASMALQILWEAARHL
# Experimental: Experimental Example 1: Evaluation of Human mPGES-1 Enzyme Inhibitory Activity
# The human mPGES-1 enzyme inhibitory activity of a test article was evaluated according to the report of Xu et al. (XU, D et al. MF63 [2-(6-chloro-1H-phenanthro[9,10-d]imidazol-2-yl)-isophthalonitrile], a selective microsomal prostaglandin E synthase-1 inhibitor relieves pyresis and pain in preclinical models of inflammation. J Pharmacol Exp Ther. September 2008, Vol. 326, No. 3, pages 754-763). The amount of PGE2 produced by human mPGES-1 in the presence of a test article was measured by the HTRF (homogeneous time resolved fluorescence) method, and the human mPGES-1 enzyme inhibitory activity of the test article was determined.
# 1) Preparation of Human mPGES-1 Expressing Cell Microsome Fraction
# A DNA fragment containing human mPGES-1, which is added with a BamHI recognition cleavage sequence just before the translation initiation codon and an EcoRI recognition cleavage sequence just after the translation termination codon, was amplified by the PCR (Polymerase Chain Reaction) method using a human mPGES-1 expression plasmid DNA (pME-18S/iPGES-1) prepared in-house as a template. The purified DNA fragment was digested with BamHI and EcoRI, and ligated to pcDNA3.1(+) (Invitrogen, model number V790-20), similarly_digested with BamHI and EcoRI, by using a DNA Ligation kit ver. 2.1 (Takara Bio, model number 6022). The human mPGES-1 expression plasmid DNA was isolated from Escherichia coli DH5a (TOYOBO, model number DNA-903) transformed with the obtained ligation product. The base sequence of human mPGES-1 cloned to a vector was determined by the Dye Terminator method using BigDye Terminator v3.1 Cycle Sequencing Kit (Applied Biosystems, #4337455). The determined sequence was identical with the sequence of the protein translational region of human mPGES-1 (Accession number NM 004878) registered in the NCBI Reference Database.
# Human mPGES-1 expression plasmid DNA was transfected into Chinese hamster ovary-derived cells (FreeStyle CHO-S Cell, Invitrogen, #R^800-07) by using a transgene reagent (FreeStyle MAX Reagent (Invitrogen, #16447-100)), and cultured with shaking (8% CO2, 37° C.) in a medium containing 8 mmol/L L-glutamine (GIBCO FreeStyle CHO Expression Medium, Invitrogen, #12651-022) for 48 hr.
# The CHO-S cells were suspended in Homogenate Buffer (100 mmol/L potassium phosphate (pH 7.4), 250 mmol/L Sucrose, 100 mmol/L EDTA, complete EDTA free (Roche, #1873580)). Using an ultrasonic disruptor UD-201 (Tomy Seiko), the suspended cells were disrupted at output:3, duty cycle:50 for 30 seconds. The precipitate was removed by centrifugation (1,000×g, 5 min, 4° C.), and the supernatant was centrifuged (5,000×g, 10 min, 4° C.). The supernatant was further centrifuged (105,000×g, 60 min, 4° C.). The obtained precipitate was suspended in Resuspension Buffer (100 mmol/L potassium phosphate (pH 7.4), 250 mmol/L sucrose, 100 mmol/L EDTA, 10% glycerol) to give a microsome fraction.
# The protein concentration of the microsome fraction was measured by the Bradford method (Protein Assay Kit, Bio-Rad). The microsome fraction was rapidly frozen in liquid nitrogen and preserved at −80° C. Human mPGES-1 in the microsome fraction was detected by Western Blot using rabbit anti-mPGES-1 polyclonal antibody (ThermoFisher Scientific, #PA1-10264).
# 2) Evaluation of Human mPGES-1 Enzyme Inhibitory Activity
# A test article solution diluted with 0.1 mol/L potassium phosphate, pH 7.4 (hereinafter to be referred to as KPB) or DMSO (Nacalai Tesque, #13407-45) was added at 5 μL/well to 96 well V-bottom plate (Corning, #3363). The final DMSO concentration during the reaction was set to 2%(v/v). Furthermore, a microsome fraction of CHO-S cells expressing human mPGES-1, which was diluted with reduced GSH (12.5 mmol/L KPB solution, SIGMA, #G6529-25G) such that the protein concentration was 5 μg/mL, was added at 20 μL/well. […]
# [2] = tested on: A549 cell; experiment: Evaluation of PGE2 production inhibitory action using A549 cell (IL-1β stimulated); type: cell-based, human; conditions: Homo sapiens
# Experimental: Experimental Example 2: Evaluation of PGE2 Production Inhibitory Action Using A549 Cell
# A549 cell (Japan Health Sciences Foundation Research Resources Bank), which is cell line derived from humans lung cancer, was suspended in assay medium (Ham's F-12K (Wako, #080-08565) containing 2% FBS (Hyclone Laboratories, #SH30910.03), 100 units/mL penicillin and 100 μg/mL streptomycin (Invitrogen, #15140-122)), the suspension was added at 2.5×10^4 cells/100 μL/well to 96 well flat-bottom plate (Corning, #353072), and the plate was left standing for 20 hr in a CO2 incubator set at 37° C. The test article was serially diluted with DMSO (Nacalai Tesque, #13407-45), and then 20-fold diluted with the assay medium to prepare a test article solution having a ten-fold concentration of the final concentration. The final DMSO concentration during the reaction was set to 0.5% (v/v). The medium was removed from the plate in which the cell was added, new assay medium was added at 160 μL/well to the plate, and the plate was left standing for 10 min in a CO2 incubator. Then, the test article solution was added at 20 μL/well to the plate, and the plate was left standing for 30 min in a CO2 incubator. Next, recombinant humans IL-1β (R&D Systems, #201-LB) as a stimulant to enhance PGE2 production due to increase of mPGES-1 mRNA expression was added at 20 μL/well (the final concentration was 1 ng/mL) to the plate, and the plate was left standing for 18 hr in a CO2 incubator. The supernatant was collected at 180 μL/well, and the PGE2 concentration was measured using Prostaglandin E2 assay (CISbio Bioassays, #62P2APEC) according to the manual. As the reference standard for analytical curve, PGE2 (Cayman Chemical, #14010) was used. Using EnVision 2104 (Perkin Elmer), the time-resolved fluorescence at 620 nm and 665 nm relative to the excitation light at 337 nm was measured. PGE2 concentration was extrapolated from the PGE2 analytical curve. Average of the PGE2 concentrations of the respectively-treated wells was used as the data.
# The PGE2 production inhibitory activity (%) of the test article was calculated according to the following Formula 3. PGE2 production inhibitory activity(%)=(PGE2A−PGE2X)/(PGE2A−PGE2B)×100 [Formula 3] • PGE2A: PGE2 concentration of vehicle-treated well • PGE2B: PGE2 concentration of blank well (no addition of recombinant humans IL-1B) • PGE2X: PGE2 concentration of test article-treated well
# [3] = A549, 18 h, IC50 value, A549 cell, recombinant IL-1β 1 ng/mL, 18 hr, PGE2 in supernatant, read-out: cell PGE2 production inhibitory activity
# [4] = A549, A549 cell, recombinant human IL-1β stimulation, read-out: cell PGE2 production inhibitory activity (IC50 value)
SMILES,pIC50 [1],"pIC50 [2, 3]","pIC50 [2, 4]","inhibition at 0.03 µM ([2]; A549 cell, IL-1β stimulation, at the highest concentration given (0.03 μM), read-out: cell PGE2 production inhibitory activity (%), printed in parentheses after the > bound) [%]"
"CC1(c2cccc(-c3nc(O)nc(-c4cc(CNC(=O)C(C)(C)C(F)(F)F)ccc4Cl)n3)c2)CC1 [Example 49, N-(4-chloro-3-{4-hydroxy-6-[3-(1-methylcyclopropyl)phenyl]-1,3,5-triazin-2-yl}benzyl)-3,3,3-trifluoro-2,2-dimethylpropionamide]",9.30,8.14,–,–
CC(C)(C(=O)NCc1ccc(Cl)c(-c2nc(O)nc(-c3ccc(OC4CC4)nc3)n2)c1)C(F)(F)F [Example 50],9.30,6.77,–,–
CCCCC(C)(C)C(=O)NCc1ccc(Cl)c(-c2nc(O)nc(-c3ccc(OCC)nc3)n2)c1 [Example 51],9.22,6.39,–,–
"CC(C)c1cccc(-c2nc(O)nc(-c3cc(CNC(=O)C4(C(F)(F)F)CCCC4)ccc3Cl)n2)c1 [Example 52, 1-trifluoromethylcyclopentanecarboxylic acid 4-chloro-3-[4-hydroxy-6-(3-isopropylphenyl)-1,3,5-triazin-2-yl]benzylamide]",8.96,8.22,–,–
Cc1ccc(-c2nc(O)nc(-c3cc(CNC(=O)C(C)(C)C(F)(F)F)ccc3Cl)n2)cc1C(C)C [Example 53],9.40,8.43,–,–
Cc1ccc(-c2nc(O)nc(-c3cc(CNC(=O)C(C)(C)C(F)(F)F)ccc3Cl)n2)cc1C(C)(C)C [Example 54],9.30,8.54,–,–
CC(C)c1cc(-c2nc(O)nc(-c3cc(CNC(=O)C4(C(F)(F)F)CCCC4)ccc3Cl)n2)ccc1Cl [Example 55],8.72,8.59,–,–
CO[C@](C)(C(=O)NCc1ccc(Cl)c(-c2nc(O)nc(-c3ccc(Cl)c(C(C)C)c3)n2)c1)C(F)(F)F [Example 56],9.15,8.59,–,–
COC1(C(=O)NCc2ccc(Cl)c(-c3nc(O)nc(-c4ccc(Cl)c(C(C)C)c4)n3)c2)CCCCC1 [Example 57],8.54,8.35,–,–
COc1ncc(-c2nc(O)nc(-c3cc(CNC(=O)C(C)(C)C(F)(F)F)ccc3Cl)n2)cc1C(C)C [Example 58],9.00,6.82,–,–
CC(C)(C(=O)NCc1ccc(Cl)c(-c2nc(O)nc(-c3ccc(OC4CCC4)nc3)n2)c1)C(F)(F)F [Example 59],9.52,7.28,–,–
O=C(NCc1ccc(Cl)c(-c2nc(O)nc(-c3ccc(OC4CCC4)nc3)n2)c1)C1(C(F)(F)F)CCCCC1 [Example 60],9.40,8.08,–,–
COCCCCOc1ccc(-c2nc(O)nc(-c3cc(CNC(=O)C(C)(C)C(F)(F)F)ccc3Cl)n2)cn1 [Example 61],9.30,–,7.10,–
COc1ncc(-c2nc(O)nc(-c3cc(CNC(=O)C4(C(F)(F)F)CCCCC4)ccc3Cl)n2)cc1C(C)C [Example 62],9.00,–,7.30,–
CC1(c2cccc(-c3nc(O)nc(-c4cc(CNC(=O)C5(C(F)(F)F)CCCC5)ccc4Cl)n3)c2)CC1 [Example 63],8.77,–,7.85,–
CC1(c2cccc(-c3nc(O)nc(-c4cc(CNC(=O)C5(C(F)(F)F)CCCCC5)ccc4Cl)n3)c2)CC1 [Example 64],8.80,–,8.28,–
CO[C@](C)(C(=O)NCc1ccc(Cl)c(-c2nc(O)nc(-c3cccc(C4(C)CC4)c3)n2)c1)C(F)(F)F [Example 65],8.96,–,8.01,–
CC(C)(C)c1cc(-c2nc(O)nc(-c3cc(CNC(=O)C(C)(C)C(F)(F)F)ccc3Cl)n2)ccc1F [Example 67],8.55,–,8.41,–
CCOCCCOc1ccc(-c2nc(O)nc(-c3cc(CNC(=O)C4(C(F)(F)F)CCCCC4)ccc3Cl)n2)cn1 [Example 68],9.22,–,7.96,–
CCCOCCOc1ccc(-c2nc(O)nc(-c3cc(CNC(=O)C4(C(F)(F)F)CCCCC4)ccc3Cl)n2)cn1 [Example 69],8.64,–,8.09,–
CC(C)c1cccc(-c2nc(O)nc(-c3cc(CNC(=O)C(C)(C)CF)ccc3Cl)n2)c1 [Example 70],8.82,–,7.25,–
CCCc1cc(-c2nc(O)nc(-c3cc(CNC(=O)C4(C(F)(F)F)CCCCC4)ccc3Cl)n2)cnc1OCC [Example 72],8.28,–,8.23,–
CCCc1cc(-c2nc(O)nc(-c3cc(CNC(=O)C(C)(C)C(F)(F)F)ccc3Cl)n2)cnc1OCC [Example 73],8.38,–,< 7.52,47
CO[C@@](C)(C(=O)NCc1ccc(Cl)c(-c2nc(O)nc(-c3cccc(C(C)C)c3)n2)c1)C(F)(F)F [Example 74],8.89,–,7.54,–
CCC(CC)(OC)C(=O)NCc1ccc(Cl)c(-c2nc(O)nc(-c3cccc(C(C)C)c3)n2)c1 [Example 75],8.74,–,7.49,–
CC(C)c1cccc(-c2nc(O)nc(-c3cc(CNC(=O)C(C)(C)CC(F)(F)F)ccc3Cl)n2)c1 [Example 76],8.89,–,7.06,–
